In patent US8524302B2, “Natural flavour enhancers and methods for making same” (Pepsico, priority 2009, dated 2013):
Entries after “also recorded” stand apart in the source; their conditions may differ.

Assays:
Format in all cases: in vivo
sensory panel [1] = assay: Sensory (triangle) tests of the compounds in water; conditions: for Sensory descriptors: pH 6.5; for Intensity (0-5): pH 6.5, aroma and taste intensity, scale 0-5; for kokumi sensation (in words): without inducing or glutamate-containing composition
Experimental: (§1) Unless otherwise indicated, all sensory tests for the samples are determined using triangle tests (Wieser and Belitz, Z. Lebensm. Unters. Forsch., 1975, 159, 65-72) in three different sessions. The sensory panel is trained to evaluate aqueous solutions (2 mL each) of the following reference taste compounds dissolved in bottled water with a pH of 6.0: sucrose (25 mmol/L) for sweet taste; lactic acid (20 mmol/L) for sour taste; NaCl (30 mmol/L) for salty taste; caffeine (1 mmol/L) for bitter taste; and MSG (3 mmol/L) for umami taste, tannic acid (0.05%) for puckering astringency, and quercetin-O-β-D-glucopyranoside (0.01 mmol/L) for a velvety astringent, mouth-drying oral sensation. For the training of viscosity, a gelatin solution (0.5% in water) was used. […] Sensory analyses were performed in a sensory panel room at 19-22° C. in three different sessions using nose clamps.
(§2) For recording the taste profiles, samples are prepared as indicated in the examples below. Flavor profiles of samples are determined in a triangle test in three different sessions. Panelists refrain from eating or drinking for at least 1 hour prior to the session. At the start of the session and before each trial, the subjects rinsed with water and expectorated. The participants receive a set of two blanks and one taste sample. Liquids are swirled around in the mouth briefly and expectorated. […] Each sample with additive is compared to two reference samples without additives. Kokumi intensity is rated according to a scale from 0 to 5 (with 5 being the most intensive). Punch refers to an initial kokumi sensation experienced in the mouth within 0-3 seconds from the time when a food or liquid is put in the mouth, while long-lasting refers to kokumi felt after 10-60 seconds therefrom.
Sensory (triangle) tests are performed by dissolving the listed compounds in water (Evian®). Additives are added as specified in table below. The pH-value of all samples is adjusted to 6.5 using formic acid (0.1 mol/L) or sodium hydroxide (0.1 mol/L). For each sample, aroma and taste intensity is rated and panelists are asked to describe sensory characteristics.

sensory panel [2] = assay: Sensory tests (organoleptic evaluation) of compounds added to inducing compositions; conditions: for kokumi sensation / flavour enhancing sensation (in words): added to various inducing compositions or foods; for kokumi sensation (in words): after undergoing an Amadori reaction
Description: Sensory tests subjecting the flavour enhancing compounds to organoleptic evaluation indicate that the isolated flavouring compounds are substantially tasteless in the form of an aqueous solution, but are useful for imparting the enhanced effects when added even in small amounts to certain inducing compositions or food products containing a glutamate and/or nucleic acid as further described below. […] The thresholds given herein are meant to reflect minimum amounts for use in chicken broth as a matrix; however, one skilled in the art, armed with this disclosure, will recognize that this amount can be adjusted, either higher or lower, dependent upon the matrix used and the desired intensity of the kokumi effect. In general, a certain amount of salt is also necessary to achieve the kokumi effect; typically, about 12 mmol/L, which is found naturally in nearly all food products. The compounds can be applied to different kinds of foods including without limitation snacks, soups, cereals, sauces, fish, and fish paste. Unless otherwise indicated, all sensory tests for the samples are determined using triangle tests ([…] and Belitz, Z. Lebensm. Unters. Forsch., 1975, 159, 65-72) in three different sessions. The sensory panel is trained to evaluate aqueous solutions (2 mL each) of the following reference taste compounds dissolved in bottled water with a pH of 6.0: sucrose (25 mmol/L) for sweet taste; lactic acid (20 mmol/L) for sour taste; NaCl (30 mmol/L) for salty taste; caffeine (1 mmol/L) for bitter taste; and MSG (3 mmol/L) for umami taste, tannic acid (0.05%) for puckering astringency, and quercetin-O-β-D-glucopyranoside (0.01 mmol/L) for a velvety astringent, mouth-drying oral sensation. For the training of viscosity, a gelatin solution (0.5% in water) was used. […] Sensory analyses were performed in a sensory panel room at 19-22° C. in three different sessions using nose clamps. For recording the taste profiles, samples are prepared as indicated in the examples below. Flavor profiles of samples are determined in a triangle test in three different sessions. Panelists refrain from eating or drinking for at least 1 hour prior to the session. At the start of the session and before each trial, the subjects rinsed with water and expectorated. The participants receive a set of two blanks and one taste sample. Liquids are swirled around in the mouth briefly and expectorated. […] Each sample with additive is compared to two reference samples without additives.

sensory panel [3] = assay: Sensory (triangle) tests: kokumi intensity in chicken broth; conditions: for Kokumi intensity (0-5): pH 6.5, scale 0-5 (blank = 2)
Experimental: as §1, §2
Sensory (triangle) tests are performed by dilution of 3 grams of chicken broth concentrate (Gourmet Bouillon Huhn; Maggi, Singen, Germany) with 100 mL water (Evian®). Additives are added as specified in table below. The pH-value of all samples is adjusted to 6.5 using formic acid (0.1 mol/L) or sodium hydroxide (0.1 mol/L). […] For each sample, kokumi intensity is rated and panelists were asked to describe sensory characteristics.

| Compound | Sensory descriptors (sensory panel [1]; additive 5 mmol/L) | Intensity (0-5) (sensory panel [1]; additive 5 mmol/L) | kokumi sensation (in words) (sensory panel [1]) | kokumi sensation / flavour enhancing sensation (in words) (sensory panel [2]; listed as formula (I)) | kokumi effect (in words) (sensory panel [3]; Table 10) | Kokumi intensity (0-5) (sensory panel [3]; additive 5 mmol/L) | Intensity (0-5) (sensory panel [1]; additive 10 mmol/L) | kokumi sensation (in words) (sensory panel [2]) | Kokumi intensity (0-5) (sensory panel [3]; additive 10 mmol/L) | Sensory descriptors (sensory panel [1]; additive 10 mmol/L) | kokumi sensation / flavour enhancing sensation (in words) (sensory panel [2]) |
| --- | --- | --- | --- | --- | --- | --- | --- | --- | --- | --- | --- |
| CC=CSCC(NC(=O)CCC(N)C(=O)O)C(=O)NC(C[S+]([O-])C=CC)C(=O)O (racemic) [γ-L-glu-(E)-S-(propen-1-yl)-L-cys-(E)-S-(propen-1-yl)-L-cys-(+/−)-SO] | flavourless | 0 | no kokumi sensation | strong kokumi sensation; also recorded: surprisingly highly potent kokumi effect; also recorded: strong flavour enhancing sensation | surprisingly potent kokumi effect | 4.5 | – | – | – | – | – |
| C=CCSC[C@H](N)C(=O)O [S-allyl-L-cysteine] | – | – | – | – | – | – | 1 | good kokumi sensation | 3.3 | – | – |
| C/C=C/SC[C@H](NC(=O)CC[C@H](N)C(=O)O)C(=O)O [γ-L-glutamyl-(E)-S-1-propenyl-L-cysteine] | – | – | – | – | – | – | 0.5 | good kokumi sensation | 3.3 | onion aroma | – |
| C/C=C/SC[C@H](NC(=O)CC[C@H](NC(=O)[C@H](CS/C=C/C)NC(=O)CC[C@H](N)C(=O)O)C(=O)O)C(=O)O [γ-L-glutamyl-(E)-S-1-propenyl-L-cysteinyl-γ-L-glutamyl-(E)-S-1-propenyl-L-cysteine] | – | – | no kokumi sensation | – | – | – | 0 | – | 3.3 | flavourless | strong flavour enhancing sensation |
